Measured values from patent US9980936B2, “BH4 antagonists and methods related thereto” (Emory University, priority 2014, dated 2018).
Entries after “also recorded” stand apart in the source; their conditions may differ. Read-outs that look alike come from different tables or passages of the source.

Key:
[1] = target: Bfl-1/A1 (Homo sapiens, UniProt Q16548); assay: binding to other Bcl2 family members
[2] = in vivo
Procedure: In order to define the appropriate doses for in vivo experimentation, the maximum tolerated dose (MTD) was determined. Nu/Nu nude mice were treated in groups of 6 per dose level with increasing doses of BDA-366 (10-50 mg/kg/d) intraperitoneally (i.p.) for up to 12 days. […] Standard single-dose MTD treatment in normal C57BL/6 mice were measured. […] 10% of single dose MTD can usually be considered as the maximum therapeutic dose (30˜40 mg/kg) for continuous treatment.

[3] = tested on: H460, H157, DMS53, DMS153 and H146 cells expressing Bcl2 shRNA; assay: apoptotic cell death (Annexin-V/PI, FACS) after Bcl2 shRNA knock-down; format: cell-based; conditions: 1 μM, 72 h
Procedure: To determine whether Bcl-2 is the relevant target at the cellular level and whether cell killing is truly dependent on this particular mechanism, Bcl2 was specifically knocked down using three different Bcl2 shRNAs that target different regions in Bcl2 gene in five lung cancer cell lines, including two NSCLC cell lines (H460 and H157) and three SCLC cell lines (DMS53, DMS153 and H146). […] Cells expressing Bcl2 shRNA1, shRNA2, shRNA3 or control shRNA were treated with BDA-2 (1 μM) for 72 h. The level of apoptotic cell death was determined by analysis of Annexin-V/PI binding by FACS.

[4] = target: purified, human Bcl2 protein (Homo sapiens, UniProt P10415); assay: competition fluorescence polarization assay (FITC-QDCMWSGFSA peptide); format: binding; conditions: 3 nM peptide, 6 nM Bcl2
Chain of purified, human Bcl2 protein (P10415 whole entry): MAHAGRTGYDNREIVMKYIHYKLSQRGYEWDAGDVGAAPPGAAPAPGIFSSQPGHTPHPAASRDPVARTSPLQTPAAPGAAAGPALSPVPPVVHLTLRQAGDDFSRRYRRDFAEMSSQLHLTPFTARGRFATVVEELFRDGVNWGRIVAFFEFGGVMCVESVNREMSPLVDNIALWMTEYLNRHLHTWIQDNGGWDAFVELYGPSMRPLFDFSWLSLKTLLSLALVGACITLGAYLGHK
Procedure: Thus, the change of mP reflects the interaction between the fluorescent-labeled peptide and the Bcl2 protein. Data (i.e. mP value) can be imported into Prism 3.0 to determine the dissociation constant (Kd) and the binding range for each peptide.
This interaction between Bcl2 and the peptide forms the basis for the fluorescence polarization assay.
The plate was mixed on a shaker for 1 min and incubated at room temperature for an additional 15 min. The polarization, as defined as mP units, was measured at room temperature with a fluorescence microplate reader (Wallace, Calif.). A negative control (DMSO, 3 nM peptide and assay buffer) and a positive control (DMSO, 3 nM peptide, 6 nM Bcl2 and assay buffer) were used to determine the range of the assay.

[5] = tested on: H1299 cells overexpressing WT or Bcl2 single site mutants; assay: cell survival of H1299 cells overexpressing exogenous WT or single site Bcl2 mutants; format: cell-based
Text: (§1) A panel of Bcl2 mutants were generated within the BH4 domain at the specific residues that were identified by the initial docking simulations, including D10A, N11A, R12A, E13A, M16A, K17A, H20A and D31A Bcl2 mutants. A compound Bcl2 mutant D10A/N11A/R12A/E13A (AAAA) was created. Recombinant proteins of these mutants were generated for BDA-2/Bcl2 binding analysis using a competitive fluorescence polarization. […] Second, WT and all Bcl2 mutants were exogenously overexpressed in H1299 cells that express undetectable levels of endogenous Bcl2.

[6] = tested on: H460 or DMS53 cells expressing Bcl2 shRNA transfected with WT Bcl2; assay: rescue of Bcl2-silenced cells with exogenous WT Bcl2; format: cell-based; conditions: 72 h
Text: Whether expression of exogenous Bcl2 can restore the sensitivity of Bcl2-silenced lung cancer cells to BDA-2 and whether the BDA-2/BH4 binding is important for such effect was examined. WT and BDA-2 binding deficient D10A/N11A/R12A/E13A (AAAA) Bcl2 mutant cDNA in pCIneo or vector-only control were transfected into H460 or DMS53 cells expressing Bcl2 shRNA. It has been reported that if the shRNA is directed to the 3′ UTR or 5′ UTR of the gene, the effect of the shRNA1 can be rescued by ectopically expressing the protein using the wild-type or mutant cDNA. Because Bcl2 shRNA1 targets the 5′UTR of endogenous Bcl2, the silencing effect of shRNA1 on Bcl2 expression could be rescued by transfection of exogenous WT or AAAA Bcl2 mutant. After transfection, cells were treated with BDA-2 or the BH3 mimetic ABT-199 at the indicated concentrations for 72 h. […] The apoptotic effect of BDA-2 on lung cancer cells requires its BH4 binding.

[7] = tested on: H460 cells; assay: co-IP of Bcl2 with Bax and Bim; format: cell-based
Procedure: To test whether BDA-366-induced Bcl2 conformational change increases interaction between Bcl2 and Bax in cells, co-IP experiments were performed following treatment of H460 cells with BDA-366.

[8] = target: Bcl-XL (Homo sapiens, UniProt Q07817); assay: binding to other Bcl2 family members
Chain of Bcl-XL (Q07817 whole entry, species assumed): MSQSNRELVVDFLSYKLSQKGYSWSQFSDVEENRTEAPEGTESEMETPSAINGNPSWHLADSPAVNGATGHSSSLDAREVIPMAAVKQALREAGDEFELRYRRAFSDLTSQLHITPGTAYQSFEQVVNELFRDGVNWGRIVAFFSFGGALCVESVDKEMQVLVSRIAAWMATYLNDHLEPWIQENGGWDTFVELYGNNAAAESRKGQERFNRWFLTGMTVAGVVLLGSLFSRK

[9] = tested on: NSCLC cell lines H157, Calu-1, H358, H460, H1975 and SCLC cell lines DMS53, DMS153, H146, H69; assay: cell growth (SRB) and apoptosis (Annexin V/PI), lines with higher Bcl2; format: cell-based; conditions: relatively higher levels of Bcl2
Procedure: The effect of BDA-2 on cell growth and apoptosis was measured by SRB assay and Annexin V/PI binding, respectively, in both small cell lung cancer (SCLC) and non-small cell lung cancer (NSCLC) cell lines that express various levels of endogenous Bcl2.

[10] = tested on: PDX obtained from a patient with refractory SCLC; assay: patient-derived xenografts (PDX) of refractory SCLC; format: in vivo, Mice; conditions: 20 mg/kg/d i.p., 2 weeks
Procedure: Mice carrying xenografts derived from a patient with refractory SCLC were treated with BDA-366 (20 mg/kg/d) via i.p. for 2 weeks.
To evaluate the anti-tumor activity of BDA-2 against SCLC in vivo, patient-derived xenografts (PDX) were established without intervening in vitro culture, which are expected to better recapitulate the SCLC tumor setting.

[11] = tested on: SCLC cell lines; assay: growth of SCLC cell lines; format: cell-based
[12] = tested on: Bcl2 ΔBH1 deletion mutant protein; assay: fluorescence polarization assay with fluorescent Bak peptide; format: binding
Procedure: (§2) Purified recombinant WT and a panel of Bcl2 BH domain deletion mutant proteins (i.e. ΔBH1, ΔBH2, ΔBH3 and ΔBH4) were commercially obtained from ProteinX Lab. To directly measure BDA-2/Bcl2 binding, a fluorescence polarization assay with a fluorescent Bak peptide (5′-[…]) was performed.

[13] = target: Bcl2 (Homo sapiens, UniProt P10415); assay: as above; format: binding
Chain of Bcl2 (P10415 whole entry): as the sequence (P10415 whole entry) above
Procedure: as §2

[14] = tested on: Bcl2 ΔBH3 deletion mutant protein; assay: as above; format: binding
Procedure: as §2

[15] = tested on: Bcl2 ΔBH2 deletion mutant protein; assay: as above; format: binding
Procedure: as §2

[16] = tested on: BH4 domain deficient Bcl2 mutant protein (ΔBH4); assay: as above; format: binding
Procedure: as §2

[17] = target: T1, Bcl2 mutant D10A/N11A/R12A/E13A (AAAA) (Homo sapiens, UniProt P10415, D10A/E13A/N11A/R12A); assay: competitive fluorescence polarization, compound BH4 mutant; format: binding
T1 construct: made in house
T1 sequence (P10415 whole entry D10A/N11A/R12A/E13A): as the sequence (P10415 whole entry) above, with D10A, N11A, R12A, E13A counted along it
Text: as §1

[18] = target: Mc1-1 (Homo sapiens, UniProt Q07820); assay: binding to other Bcl2 family members
Chain of Mc1-1 (Q07820 whole entry): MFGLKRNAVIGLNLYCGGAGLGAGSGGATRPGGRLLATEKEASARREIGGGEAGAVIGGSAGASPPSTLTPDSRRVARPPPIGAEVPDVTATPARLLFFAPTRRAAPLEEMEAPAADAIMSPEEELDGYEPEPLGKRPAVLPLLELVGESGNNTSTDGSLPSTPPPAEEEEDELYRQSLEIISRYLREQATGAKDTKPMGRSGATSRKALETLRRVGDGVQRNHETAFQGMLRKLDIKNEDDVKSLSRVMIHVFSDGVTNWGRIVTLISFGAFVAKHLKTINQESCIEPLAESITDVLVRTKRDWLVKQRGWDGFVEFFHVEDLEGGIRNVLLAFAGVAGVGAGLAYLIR

[19] = tested on: human lung cancer cells; assay: screening of cytotoxicity by sulforhodamine B (SRB) assay; format: cell-based; conditions: among top 200 docked small molecules
Text: A library containing approximately 300,000 small molecules from the National Cancer Institute (NCI) was used to dock the structural pocket of the BH4 domain. The small molecules were ranked according to their energy scores. The top 200 small molecules were selected for screening of cytotoxicity in human lung cancer cells by sulforhodamine B (SRB) assay.

Chain of Bfl-1/A1 (Q16548 whole entry): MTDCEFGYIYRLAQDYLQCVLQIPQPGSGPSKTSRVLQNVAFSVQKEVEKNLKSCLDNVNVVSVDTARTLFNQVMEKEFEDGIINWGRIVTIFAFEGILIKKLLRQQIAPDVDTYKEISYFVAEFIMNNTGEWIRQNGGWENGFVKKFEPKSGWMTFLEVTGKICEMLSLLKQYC

SMILES: CCN(CC)CC(O)CNc1ccc(NCC2CO2)c2c1C(=O)c1ccccc1C2=O (centres unmarked) [BDA-366, 1-((3-(diethylamino)-2-hydroxypropyl)amino)-4-((oxiran-2-ylmethyl)amino)anthracene-9,10-dione]
- binding to Bfl-1/A1 [1]: failed to bind
- binding to Bfl-1/A1 ([1]; listed as BDA-2): did not bind
- time to death of mice ([2]; C57BL/6, mouse, 400 mg/kg): 4 days
- MTD ([2]; C57BL/6, mouse, maximum therapeutic dose for continuous treatment (10% of single dose MTD)): 30 to 40 mg/kg
- MTD ([2]; C57BL/6, mouse, single dose MTD): 300 to 400 mg/kg
- ALT and AST ([2]; mouse, 400 mg/kg): significantly enhanced
- pathological analysis for all organs ([2]; mouse, 400 mg/kg): microsteatosis in the liver and atrophic white pulp in the spleen
- weight loss or other toxicities (hematologic, liver and kidney functions) ([2]; mouse, ip, 300 mg/kg): did not cause weight loss or other toxicities
- sensitivity (apoptotic cell death) after depletion of endogenous Bcl2 [3]: significantly reduced sensitivity
- Ki [4]: 0.93 ± 0.08 nM
- sensitivity of cells overexpressing WT or single site Bcl2 mutants [5]: enhanced sensitivity
- sensitivity of cells after expression of exogenous WT Bcl2 [6]: restored sensitivity
- Bcl2/Bax interaction [7]: enhanced Bcl2/Bax interaction
- Bcl2/Bim binding [7]: decreased Bcl2/Bim binding
- binding to Bcl-XL [8]: failed to bind
- binding to Bcl-XL ([8]; listed as BDA-2): did not bind
- sensitivity of cells [9]: more sensitive
- growth of SCLC PDX [10]: effectively suppressed the growth of PDX; also recorded: potently suppressed the growth of the SCLC PDX; also recorded: represses tumor growth in xenografts derived from SCLC patient
- growth of SCLC cell lines [11]: efficiently suppressed growth of SCLC cell lines
- binding after deletion of BH1 [12]: did not significantly affect its BDA-2 binding
- Ki ([13]; fluorescent Bak peptide, WT Bcl2): 3.3 ± 0.73 nM
- inhibitory constant (Ki) value ([13]; purified Bcl2 protein, BH4 domain): nanomolar level
- binding after deletion of BH3 [14]: did not significantly affect its BDA-2 binding
- binding after deletion of BH2 [15]: did not significantly affect its BDA-2 binding
- binding to ΔBH4 Bcl2 [16]: failed to bind
- binding to AAAA Bcl2 mutant protein [17]: remarkably decreased BDA-2 binding
- binding to Mc1-1 [18]: failed to bind
- binding to Mc1-1 ([18]; listed as BDA-2): did not bind
- activity against human lung cancer cells [19]: most potent activity
